Assay results: publication PMC11435065, “Inhibition of P-Glycoprotein Asymmetrically Alters the In Vivo Exposure Profile of SGC003F: A Novel Guanylate Cyclase Stimulator” (Pharmaceuticals, 2024)
Where two headings read alike, the source gives them in different places.

Assays:
[1] = Bidirectional transport across Caco-2 monolayer cells; type: in vitro ADME; details: human, Caco-2 cells, read-out: ER value (efflux ratio)
Protocol: LLC-PK1-MDR1, LLC-PK1-MOCK, and Caco-2 cells were seeded in 24-well Transwell cell plates at optimized densities. The medium was changed every other day for the LLC-PK1 cells and every day for the Caco-2 cells. The LLC-PK1 cells were cultured continuously for 4–7 days, while the Caco-2 cells were cultured continuously for 28–35 days in preparation for transport experiments. Prior to the experiment, TEER (transepithelial electrical resistance) values were measured using a cell resistance meter. For electrical measurements, two electrodes were used, with one electrode placed in the upper compartment and the other in the lower compartment and the electrodes were separated by the cellular monolayer. The measurement procedure included measuring the blank resistance (Rblank) of the semipermeable membrane only (without cells) and measuring the resistance across the cell layer on the semipermeable membrane (Rtotal). TEER values were achieved by calculating as TEER = (Rtotal − Rblank) × Marea in the unit of Ω·cm^2. […]
The apparent permeability rate value (Papp) of the monolayer cells was calculated according to Equation (5) Papp = (dQ/dt)/(A × C0)(5) where dQ/dt is the transport rate (µmol·s^−1); A is the insert surface area (0.33 cm^2); C0 is the initial concentration of the compound (µM).
Efflux rate (ER) was calculated according to Equation (6):ER = Papp B-A/PappA-B(6)

[2] = Tissue distribution of SGC003F in rats with or without tariquidar; type: in vivo; details: rat; for Kp / AUC(0-t): male
Protocol: A total of 45 male SD rats were randomly divided into 15 groups, with 3 rats in each group; each set of 5 groups constituted a larger group. The first large group served as the control group: SGC003F (p.o., 1 mg/kg) + blank solvent; the second large group was designated as experimental Group I: SGC003F (p.o., 1 mg/kg) + tariquidar (i.v., 7.5 mg/kg); the third group was labeled as Group II: SGC003F (p.o., 1 mg/kg) + tariquidar (p.o., 15 mg/kg). The rats in each group were euthanized at 0.5 h, 1 h, 2 h, 4 h, and 24 h after administration. Blood samples were collected by cardiac puncture and placed in heparin tubes. The plasma was harvested by centrifugation at 2500× g for 10 min at 4 °C. Major organs (brain, heart, liver, kidney, and small intestine) were collected and homogenized with saline at a ratio of 1:4 (w/v). All samples were stored at −40 °C for further analysis.
The tissue plasma partition coefficient at individual time point (KP1) was calculated by the ratio of the tissue concentration to the plasma concentration at each time point, as described in Equation (3) KP1 = Ctissue/Cplasma(3)
The overall tissue plasma partition coefficient (KP2) was calculated by the ratio of the area under the tissue drug-time curve to the area under the plasma drug–time curve, as described in Equation (4) KP2 = AUC(0-t, tissue)/AUC(0-t, plasma)(4)

[3] = SGC003F p.o. 1 mg/kg, tariquidar i.v. 7.5 mg/kg
[4] = SGC003F p.o. 1 mg/kg, tariquidar p.o. 15 mg/kg

Question: With `COC(=O)Nc1c(N)nc(-c2nn(Cc3sccc3F)c3ncc(F)cc23)nc1N` [SGC003F] as the molecule, how does the efflux ratio at 2 h, 2 µM [1] read?
Answer: 7.2

Question: What about the Kp ([2]; SD, brain, oral, SGC003F p.o. 1 mg/kg, with tariquidar i.v. 7.5 mg/kg, read-out: KP2, Brain) of the same molecule?
Answer: 0.004

Question: What about the Kp ([2]; SD, brain, oral, SGC003F p.o. 1 mg/kg, with tariquidar p.o. 15 mg/kg, read-out: KP2, Brain) of the same molecule?
Answer: 0.004

Question: And the AUC(0-t) ([2]; SD, brain, po, 1 mg/kg, SGC003F p.o. 1 mg/kg, single, read-out: AUC(0–24h), Brain)?
Answer: 13.1 ± 2.66 ng·h/mL

Question: What about the AUC(0-t) ([2]; SD, brain, po, 1 mg/kg, SGC003F p.o. 1 mg/kg, with tariquidar i.v. 7.5 mg/kg, read-out: AUC(0–24h), Brain) of the same molecule?
Answer: 31.2 ± 10.9 ng·h/mL

Question: What about the AUC(0-t) ([2]; SD, brain, po, 1 mg/kg, SGC003F p.o. 1 mg/kg, with tariquidar p.o. 15 mg/kg, read-out: AUC(0–24h), Brain) of the same molecule?
Answer: 41.5 ± 14.8 ng·h/mL

Question: And the Kp ([2]; SD, heart, oral, SGC003F p.o. 1 mg/kg, with tariquidar i.v. 7.5 mg/kg, read-out: KP2, Heart)?
Answer: 0.4 ± 0.02

Question: What about the Kp ([2]; SD, heart, oral, SGC003F p.o. 1 mg/kg, with tariquidar p.o. 15 mg/kg, read-out: KP2, Heart) of the same molecule?
Answer: 0.45 ± 0.09

Question: What about the AUC(0-t) ([2]; SD, heart, po, 1 mg/kg, SGC003F p.o. 1 mg/kg, single, read-out: AUC(0–24h), Heart) of the same molecule?
Answer: 2370 ± 346 ng·h/mL

Question: What about the Kp ([2]; SD, heart, po, 1 mg/kg, SGC003F p.o. 1 mg/kg, single, read-out: KP2 (tissue/plasma AUC), Heart) of the same molecule?
Answer: 0.45 ± 0.04

Question: What about the AUC(0-t) ([2]; SD, heart, po, 1 mg/kg, SGC003F p.o. 1 mg/kg, with tariquidar i.v. 7.5 mg/kg, read-out: AUC(0–24h), Heart) of the same molecule?
Answer: 3060 ± 619 ng·h/mL

Question: And the AUC(0-t) ([2]; SD, heart, po, 1 mg/kg, SGC003F p.o. 1 mg/kg, with tariquidar p.o. 15 mg/kg, read-out: AUC(0–24h), Heart)?
Answer: 4750 ± 1820 ng·h/mL

Question: And the AUC(0-t) ([2]; SD, kidney, po, 1 mg/kg, SGC003F p.o. 1 mg/kg, single, read-out: AUC(0–24h), Kidney)?
Answer: 5990 ± 2170 ng·h/mL

Question: And the AUC(0-t) ([2]; SD, kidney, po, 1 mg/kg, SGC003F p.o. 1 mg/kg, with tariquidar i.v. 7.5 mg/kg, read-out: AUC(0–24h), Kidney)?
Answer: 7870 ± 1570 ng·h/mL

Question: And the AUC(0-t) ([2]; SD, kidney, po, 1 mg/kg, SGC003F p.o. 1 mg/kg, with tariquidar p.o. 15 mg/kg, read-out: AUC(0–24h), Kidney)?
Answer: 11900 ng·h/mL

Question: What about the AUC(0-t) ([2]; SD, liver, po, 1 mg/kg, SGC003F p.o. 1 mg/kg, single, read-out: AUC(0–24h), Liver) of the same molecule?
Answer: 4870 ± 1050 ng·h/mL

Question: And the AUC(0-t) ([2]; SD, liver, po, 1 mg/kg, SGC003F p.o. 1 mg/kg, with tariquidar i.v. 7.5 mg/kg, read-out: AUC(0–24h), Liver)?
Answer: 6360 ± 283 ng·h/mL

Question: What about the AUC(0-t) ([2]; SD, liver, po, 1 mg/kg, SGC003F p.o. 1 mg/kg, with tariquidar p.o. 15 mg/kg, read-out: AUC(0–24h), Liver) of the same molecule?
Answer: 9600 ± 1820 ng·h/mL

Question: And the AUC(0-t) ([2]; SD, plasma, po, 1 mg/kg, SGC003F p.o. 1 mg/kg, single, read-out: AUC(0–24h), Plasma)?
Answer: 5310 ± 798 ng·h/mL

Question: And the AUC(0-t) ([2]; SD, plasma, po, 1 mg/kg, SGC003F p.o. 1 mg/kg, with tariquidar i.v. 7.5 mg/kg, read-out: AUC(0–24h), Plasma)?
Answer: 7540 ± 1280 ng·h/mL

Question: What about the AUC(0-t) ([2]; SD, plasma, po, 1 mg/kg, SGC003F p.o. 1 mg/kg, with tariquidar p.o. 15 mg/kg, read-out: AUC(0–24h), Plasma) of the same molecule?
Answer: 10200 ng·h/mL

Question: What about the AUC(0-t) ([2]; SD, small intestine, po, 1 mg/kg, SGC003F p.o. 1 mg/kg, single, read-out: AUC(0–24h), Intestine) of the same molecule?
Answer: 2530 ± 988 ng·h/mL

Question: And the AUC(0-t) ([2]; SD, small intestine, po, 1 mg/kg, SGC003F p.o. 1 mg/kg, with tariquidar i.v. 7.5 mg/kg, read-out: AUC(0–24h), Intestine)?
Answer: 5630 ± 1360 ng·h/mL

Question: What about the AUC(0-t) ([2]; SD, small intestine, po, 1 mg/kg, SGC003F p.o. 1 mg/kg, with tariquidar p.o. 15 mg/kg, read-out: AUC(0–24h), Intestine) of the same molecule?
Answer: 10400 ng·h/mL

Question: What about the Kp ([2]; Sprague-Dawley, brain, po, 1 mg/kg, SGC003F p.o. 1 mg/kg, single, read-out: KP2 (tissue/plasma AUC), Brain) of the same molecule?
Answer: 0.002

Question: And the Kp ([2]; Sprague-Dawley, kidney, oral, SGC003F p.o. 1 mg/kg, with tariquidar i.v. 7.5 mg/kg, read-out: KP2, Kidney)?
Answer: 1.05 ± 0.14

Question: And the Kp ([2]; Sprague-Dawley, kidney, oral, SGC003F p.o. 1 mg/kg, with tariquidar p.o. 15 mg/kg, read-out: KP2, Kidney)?
Answer: 1.16 ± 0.26

Question: What about the Kp ([2]; Sprague-Dawley, kidney, po, 1 mg/kg, SGC003F p.o. 1 mg/kg, single, read-out: KP2 (tissue/plasma AUC), Kidney) of the same molecule?
Answer: 1.11 ± 0.24

Question: And the Kp ([2]; Sprague-Dawley, liver, oral, SGC003F p.o. 1 mg/kg, with tariquidar i.v. 7.5 mg/kg, read-out: KP2, Liver)?
Answer: 0.86 ± 0.11

Question: What about the Kp ([2]; Sprague-Dawley, liver, oral, SGC003F p.o. 1 mg/kg, with tariquidar p.o. 15 mg/kg, read-out: KP2, Liver) of the same molecule?
Answer: 0.95 ± 0.07

Question: And the Kp ([2]; Sprague-Dawley, liver, po, 1 mg/kg, SGC003F p.o. 1 mg/kg, single, read-out: KP2 (tissue/plasma AUC), Liver)?
Answer: 0.91 ± 0.09

Question: What about the Kp ([2]; Sprague-Dawley, small intestine, oral, SGC003F p.o. 1 mg/kg, with tariquidar i.v. 7.5 mg/kg, read-out: KP2, Intestine) of the same molecule?
Answer: 0.74 ± 0.06

Question: And the Kp ([2]; Sprague-Dawley, small intestine, oral, SGC003F p.o. 1 mg/kg, with tariquidar p.o. 15 mg/kg, read-out: KP2, Intestine)?
Answer: 1.01 ± 0.19

Question: And the Kp ([2]; Sprague-Dawley, small intestine, po, 1 mg/kg, SGC003F p.o. 1 mg/kg, single, read-out: KP2 (tissue/plasma AUC), Intestine)?
Answer: 0.47 ± 0.11

Question: What about the “Brain-to-plasma concentration ratio relative to control group” value ([2]; 4 h, SGC003F p.o. 1 mg/kg with tariquidar (oral or i.v.)) of the same molecule?
Answer: twice

Question: What about the “Increase of SGC003F concentration in the brain versus SGC003F alone” value ([2]; 4 h, SGC003F p.o. 1 mg/kg, tariquidar intravenously 7.5 mg/kg) of the same molecule?
Answer: 3.2 fold

Question: And the “Increase of SGC003F concentration in the brain versus SGC003F alone” value ([2]; 4 h, SGC003F p.o. 1 mg/kg, tariquidar orally 15 mg/kg)?
Answer: 4.2 fold

Question: What about the “Concentration of SGC003F in the brain” value ([2]; 24 h, all groups (alone or with tariquidar)) of the same molecule?
Answer: below the limit of quantification

Question: What about the “AUC(0–24h), Brain, Ratio 1 (with Tar (i.v.)/single)” value [2, 3] of the same molecule?
Answer: 2.4

Question: What about the “AUC(0–24h), Heart, Ratio 1 (with Tar (i.v.)/single)” value [2, 3] of the same molecule?
Answer: ~1.3

Question: What about the “AUC(0–24h), Intestine, Ratio 1 (with Tar (i.v.)/single)” value [2, 3] of the same molecule?
Answer: 2.2

Question: What about the “AUC(0–24h), Kidney, Ratio 1 (with Tar (i.v.)/single)” value [2, 3] of the same molecule?
Answer: ~1.3

Question: What about the “AUC(0–24h), Liver, Ratio 1 (with Tar (i.v.)/single)” value [2, 3] of the same molecule?
Answer: ~1.3

Question: And the “AUC(0–24h), Plasma, Ratio 1 (with Tar (i.v.)/single)” value [2, 3]?
Answer: 1.4

Question: And the “KP2, Brain, Ratio 1 (with Tar (i.v.)/single)” value [2, 3]?
Answer: 2.0

Question: And the “KP2, Intestine, Ratio 1 (with Tar (i.v.)/single)” value [2, 3]?
Answer: 1.6

Question: And the “AUC(0–24h), Heart, Ratio 2 (with Tar (p.o.)/single)” value [2, 4]?
Answer: 2.0

Question: And the “AUC(0–24h), Kidney, Ratio 2 (with Tar (p.o.)/single)” value [2, 4]?
Answer: 2.0

Question: And the “AUC(0–24h), Liver, Ratio 2 (with Tar (p.o.)/single)” value [2, 4]?
Answer: 2.0

Question: What about the “AUC(0–24h), Plasma, Ratio 2 (with Tar (p.o.)/single)” value [2, 4] of the same molecule?
Answer: 2.0

Question: And the “KP2, Brain, Ratio 2 (with Tar (p.o.)/single)” value [2, 4]?
Answer: 2.0

Question: And the “KP2, Heart, Ratio 2 (with Tar (p.o.)/single)” value [2, 4]?
Answer: 1.0

Question: What about the “KP2, Intestine, Ratio 2 (with Tar (p.o.)/single)” value [2, 4] of the same molecule?
Answer: 2.1

Question: And the “KP2, Kidney, Ratio 2 (with Tar (p.o.)/single)” value [2, 4]?
Answer: 1.0

Question: And the “KP2, Liver, Ratio 2 (with Tar (p.o.)/single)” value [2, 4]?
Answer: 1.0
